Source: US20240293558A1, “KRAS INHIBITOR CONJUGATES” (Erasca, Inc., priority 2021, published 2024)

Legend:
KRAS G12D = KRAS G12D (Homo sapiens, UniProt P01116, G12D); experiment: In-vitro RAS-RAF binding assay (RRB), HTRF/FRET; assay type: biochemical; design: Biotinylated KRAS protein amino acids 1-169 (produced at Erasca); made in house; settings: Table 2, average of multiple runs of each compound; read-out: Inhibition of RAS-RAF Binding (in-vitro) KRAS (G12D) IC50
Procedure: (§1) Biotinylated KRAS protein amino acids 1-169 (produced at […]) is labeled with streptavidin-terbium (lanthanide cryptate donor fluorophore) in assay buffer (50 mM HEPES, pH 7.5, 100 mM NaCl, 1 mM MgCl2, 1 mM DTT) at a final concentration of 30 nM. In a separate reaction mixture, 30 nM cRAF (RBD) (Abcam, Cambridge MA) is labeled with anti-GST d2 (acceptor fluorophore). Labeling reactions are incubated for 1 hour at room temperature. […] Following the compound incubation, SOS1 catalytic domain (produced at […]) and GTPgS are added to the reaction to initiate nucleotide exchange (60 minutes exchange reaction). Once in the GTP state KRAS will bind to cRAF. No binding will occur if KRAS remains in the GDP state. Compounds may block nucleotide exchange or may create a steric obstruction to cRAF-KRAS interaction by binding to the RAS effector site. […] A portion of this mixture is transferred to a white 384-well plate (20 uL per well in duplicate) and read on an HTRF compatible plate reader (ClarioSTAR). Fluorescent resonance energy transfer (FRET) is measured at equilibrium. FRET signal will be high if KRAS-cRAF binding occurs. FRET signal will be low if KRAS-cRAF binding is inhibited by the test compound. Table 2 represents the average of multiple runs of each compound.

KRAS (WT) = molecular target: T1, KRAS (WT) (Homo sapiens, UniProt P01116); experiment: In-vitro RAS-RAF binding assay (RRB), HTRF/FRET; assay type: biochemical; settings: Table 2, average of multiple runs of each compound; read-out: Inhibition of RAS-RAF Binding (in-vitro) KRAS (WT) IC50
T1 construct: Biotinylated KRAS protein amino acids 1-169 (produced at Erasca); made in house
Procedure: as §1

T1 sequence (P01116 1-169 isoform P01116-2): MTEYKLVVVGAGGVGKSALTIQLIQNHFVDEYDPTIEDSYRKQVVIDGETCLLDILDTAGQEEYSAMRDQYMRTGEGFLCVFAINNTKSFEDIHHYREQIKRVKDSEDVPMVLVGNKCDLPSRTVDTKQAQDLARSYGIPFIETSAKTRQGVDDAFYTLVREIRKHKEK
KRAS G12D, sequence (P01116 1-169 isoform P01116-2 G12D): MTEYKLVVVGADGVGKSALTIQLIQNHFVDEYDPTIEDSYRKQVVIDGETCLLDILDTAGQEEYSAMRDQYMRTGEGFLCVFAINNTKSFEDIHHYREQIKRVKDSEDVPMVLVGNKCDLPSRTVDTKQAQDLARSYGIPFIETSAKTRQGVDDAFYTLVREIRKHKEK

SMILES: C#Cc1c(F)ccc2cc(O)cc(-c3ncc4c(N5CC6CCC(C5)N6)nc(OC[C@@H]5CCCN5CCCOCCC(=O)N[C@H](C(=O)N5C[C@H](O)C[C@H]5C(=O)N[C@@H](CO)c5ccc(-c6scnc6C)cc5)C(C)(C)C)nc4c3F)c12 [Example 29, (2S,4R)-1-((2S)-2-(3-(3-((2S)-2-(((4-(3,8-diazabicyclo[3.2.1]octan-3-yl)-7-(8-ethynyl-7-fluoro-3-hydroxynaphthalen-1-yl)-8-fluoropyrido[4,3-d]pyrimidin-2-yl)oxy)methyl)pyrrolidin-1-yl)propoxy)propanamido)-3,3-dimethylbutanoyl)-4-hydroxy-N—((R)-2-hydroxy-1-(4-(4-methylthiazol-5-yl)phenyl)ethyl)pyrrolidine-2-carboxamide]
- IC50 (KRAS G12D): 9.31 nM
- IC50 (KRAS (WT)): 27.9 nM

SMILES: C#Cc1c(F)ccc2cc(O)cc(-c3ncc4c(N5CC6CCC(C5)N6)nc(OC[C@@H]5CCCN5CCCOCCC(=O)N[C@H](C(=O)N5C[C@H](O)C[C@H]5C(=O)N[C@@H](C)c5ccc(-c6c(F)cccc6F)cn5)C(C)(C)C)nc4c3F)c12 [Example 30, (2S,4R)-1-((2S)-2-(3-(3-((2S)-2-(((4-(3,8-diazabicyclo[3.2.1]octan-3-yl)-7-(8-ethynyl-7-fluoro-3-hydroxynaphthalen-1-yl)-8-fluoropyrido[4,3-d]pyrimidin-2-yl)oxy)methyl)pyrrolidin-1-yl)propoxy)propanamido)-3,3-dimethylbutanoyl)-N—((S)-1-(5-(2,6-difluorophenyl)pyridin-2-yl)ethyl)-4-hydroxypyrrolidine-2-carboxamide]
- IC50 (KRAS G12D): 7.59 nM
- IC50 (KRAS (WT)): 22.3 nM

SMILES: C#Cc1c(F)ccc2cc(O)cc(-c3ncc4c(N5CC6CCC(C5)N6)nc(OC[C@@H]5CCCN5CCCOCCC(=O)N[C@H](C(=O)N5C[C@H](O)C[C@H]5C(=O)N[C@@H](C)c5ccc(-c6c(F)cccc6F)nc5)C(C)(C)C)nc4c3F)c12 [Example 31, (2S,4R)-1-((2S)-2-(3-(3-((2S)-2-(((4-(3,8-diazabicyclo[3.2.1]octan-3-yl)-7-(8-ethynyl-7-fluoro-3-hydroxynaphthalen-1-yl)-8-fluoropyrido[4,3-d]pyrimidin-2-yl)oxy)methyl)pyrrolidin-1-yl)propoxy)propanamido)-3,3-dimethylbutanoyl)-N—((S)-1-(6-(2,6-difluorophenyl)pyridin-3-yl)ethyl)-4-hydroxypyrrolidine-2-carboxamide]
- IC50 (KRAS G12D): 8.38 nM
- IC50 (KRAS (WT)): 27.8 nM

SMILES: C#Cc1c(F)ccc2cc(O)cc(-c3ncc4c(N5CC6CCC(C5)N6)nc(OC[C@@H]5CCCN5CCCOCCC(=O)N[C@H](C(=O)N5C[C@H](O)C[C@H]5C(=O)N[C@@H](CO)c5ccc(-c6c(F)cccc6F)cc5)C(C)(C)C)nc4c3F)c12 [Example 32, (2S,4R)-1-((2S)-2-(3-(3-((2S)-2-(((4-(3,8-diazabicyclo[3.2.1]octan-3-yl)-7-(8-ethynyl-7-fluoro-3-hydroxynaphthalen-1-yl)-8-fluoropyrido[4,3-d]pyrimidin-2-yl)oxy)methyl)pyrrolidin-1-yl)propoxy)propanamido)-3,3-dimethylbutanoyl)-N—((R)-1-(2′,6′-difluoro-[1,1′-biphenyl]-4-yl)-2-hydroxyethyl)-4-hydroxypyrrolidine-2-carboxamide]
- IC50 (KRAS G12D): 8.23 nM
- IC50 (KRAS (WT)): 30.3 nM

SMILES: C#Cc1c(F)ccc2cc(O)cc(-c3ncc4c(N5CC6CCC(C5)N6)nc(OC[C@@H]5CCCN5CCCOCCC(=O)N[C@H](C(=O)N5C[C@H](O)C[C@H]5C(=O)N[C@@H](C)c5ccc(N6CCC[C@H]6C#N)cc5)C(C)(C)C)nc4c3F)c12 [Example 33, (2S,4R)-1-((2S)-2-(3-(3-((2S)-2-(((4-(3,8-diazabicyclo[3.2.1]octan-3-yl)-7-(8-ethynyl-7-fluoro-3-hydroxynaphthalen-1-yl)-8-fluoropyrido[4,3-d]pyrimidin-2-yl)oxy)methyl)pyrrolidin-1-yl)propoxy)propanamido)-3,3-dimethylbutanoyl)-N—((S)-1-(4-((S)-2-cyanopyrrolidin-1-yl)phenyl)ethyl)-4-hydroxypyrrolidine-2-carboxamide]
- IC50 (KRAS G12D): 7.48 nM
- IC50 (KRAS (WT)): 3.05 nM
